Experimental findings from patent US12195557B2, “Optimised compounds” (AXELIA ONCOLOGY PTY LTD, priority 2017, dated 2025) are described below.

The term half-life denotes the time in which the quantity being followed falls by half. A word on the hepatocyte CLint: it is the rate of metabolic loss divided by the concentration. Usually EC50 stands for the concentration at which the effect is half-maximal. A lower EC50 goes with an effect from little substance.

The conditions of series [1]: dog plasma, 37° C., 4 h time course.
The conditions of series [2]: human plasma, 37° C., 4 h time course.
Series [3] can be described thus: in vitro. To be noted: rat, plasma.
Series [4] is described as follows: in vitro. To be noted: rat, hepatocytes.
Series [5] in a line: in vitro. To be noted: dog, hepatocytes.
Series [6] can be described thus: in vitro. To be noted: cynomolgus monkey, hepatocytes.
Series [7] is described as follows: in vitro. To be noted: human, hepatocytes.
Series [8] has as its target T1, human TLR2 (Homo sapiens, UniProt O60603).
T1 construct: host or cells: HEK-Blue hTLR2 (HEK293-derived) cell line
Kind of series: NF-κB luciferase reporter assay in HEK293T cells transfected with human TLR2 plasmid. It is filed as cell-based. To be noted: dose range tested (12.2 pM to 3.125 pM), Example 9. The protocol:
Comparison of the abilities of various compounds to stimulate luciferase activity in an NF-κB cell-based reporter system was determined. Compounds tested include INNA-006 (or compound (1)); INNA-013 (or compound (4)); INNA-014 (or compound (3)); INNA-015 (or compound (2)); INNA-010; INNA-011 (or compound (5)); INNA-012 (or compound (6)); and INNA-009. HEK293T cells, transiently co-transfected with a human TLR2 plasmid and a luciferase-NF-κB plasmid reporter system, were exposed to various dilutions of each compound. Successful receptor binding and subsequent signal transduction events were determined by measuring the luminescence due to luciferase activity (results shown in FIG. 11—left to right columns for each concentration are in the following order INNA-006 (or compound (1)); INNA-013 (or compound (4)); INNA-014 (or compound (3)); INNA-015 (or compound (2)); INNA-010; INNA-011 (or compound (5)); INNA-012 (or compound (6)); and INNA-009.
Comparison of the in vitro TLR2 agonistic activity of Pam3Cys-Ser-PEG3000 and INNA-006: HEK293T cells, transiently co-transfected with a human TLR2 plasmid and a luciferase-NF-κB plasmid reporter system, were exposed to various dilutions of INNA-006 or Pam3Cys-Ser-PEG3000. […]
For orientation: A reporter such as luciferase makes a cellular process visible.

A short description of another series: Solubility in water. It counts as physicochemical.
The target of series [9] is T1, human TLR2. Put plainly: NF-kB activation in HEKBlue-hTLR2 cell line (SEAP reporter). It counts as cell-based. How it is done: The potency of the compounds as activators of human and mouse TLR-2s was tested in an in vitro assay. The assay assesses NF-kB activation in the HEKBlue-mTLR-2 cell line. These cells have been stably transfected with mouse TLR-2 and express TLR-1 and TLR-6 endogenously at sufficient levels to allow for fully-functional TLR-1/2 and TLR-2/6 activation.
Toll-Like Receptor 2 (TLR2) stimulation is tested by assessing NF-kB activation in the HEKBlue-hTLR2 cell line. These cells have been stably transfected with human TLR2 and express TLR1 and TLR6 endogenously at a level sufficient to allow for fully-functional TLR1/2 and TLR2/6 activation. The activity of the test articles are tested on human TLR2 as potential agonists. The test articles are evaluated at seven concentrations and compared to control ligands. These steps are performed in triplicate.
Toll-Like Receptor 2 (TLR2) stimulation was tested by assessing N-kB activation in the HEK-Blue hTLR2 cell line. These cells have been stably transfected with human TLR2 and express TLR1 and TLR6 endogenously at a level sufficient to allow for fully-functional TLR1/2 and TLR2/6 activation. The activity of the test articles were tested on human TLR2 as potential agonists. The test articles were evaluated at seven concentrations and compared to control ligands (see list below). These steps were performed in triplicate.
The secreted embryonic alkaline phosphatase (SEAP) reporter is under the control of a promoter inducible by the transcription factor NF-κB. This reporter gene allows the monitoring of signaling through the TLR, based on the activation of NF-κB. In a 96-well plate (200 μL total volume) containing the appropriate cells (50,000-75,000 cells/well), 20 μL of the test article or the positive control ligand is added to the wells. The media added to the wells is designed for the detection of NF-κB induced SEAP expression. After a 20 hour incubation the optical density (OD) is read at 650 nm on a Molecular Devices SpectraMax 340PC absorbance detector.

The test system of series [10] is A/Udorn/307/72 (H3N2) influenza virus. It counts as in vivo, C57BL/6 mice. To be noted: n=5, day 5 (Example 4).

Read-outs that look alike come from different tables or passages of the source. Residues, ends and D or L forms follow the SMILES beside them. *: point of attachment. X1 = CCCCCCCCCCCCCCCC(=O)OCC(C*)OC(=O)CCCCCCCCCCCCCCC Where only a bound is given, the exact number is not on record here.

T1 sequence (O60603 21-784): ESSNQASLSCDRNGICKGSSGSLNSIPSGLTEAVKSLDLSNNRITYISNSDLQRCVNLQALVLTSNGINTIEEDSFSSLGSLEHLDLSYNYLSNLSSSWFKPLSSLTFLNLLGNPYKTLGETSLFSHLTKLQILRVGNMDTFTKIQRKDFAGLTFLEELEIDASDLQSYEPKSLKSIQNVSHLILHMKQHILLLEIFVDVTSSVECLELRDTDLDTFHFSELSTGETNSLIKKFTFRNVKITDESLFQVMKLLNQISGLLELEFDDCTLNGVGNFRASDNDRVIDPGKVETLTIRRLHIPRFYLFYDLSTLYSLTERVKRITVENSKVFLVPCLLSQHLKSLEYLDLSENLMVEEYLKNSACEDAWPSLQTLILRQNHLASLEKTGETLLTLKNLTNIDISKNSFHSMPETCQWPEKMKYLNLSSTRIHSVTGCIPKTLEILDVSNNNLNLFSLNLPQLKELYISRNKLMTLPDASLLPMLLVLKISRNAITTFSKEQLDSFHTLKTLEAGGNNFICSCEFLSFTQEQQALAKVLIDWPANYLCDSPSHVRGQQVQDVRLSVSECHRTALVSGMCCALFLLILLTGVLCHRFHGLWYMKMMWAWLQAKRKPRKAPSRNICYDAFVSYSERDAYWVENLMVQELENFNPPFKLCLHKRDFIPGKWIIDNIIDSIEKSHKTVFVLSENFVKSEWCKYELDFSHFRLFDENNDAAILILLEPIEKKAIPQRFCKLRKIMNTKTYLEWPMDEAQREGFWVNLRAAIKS
T1 sequence (Q9Y2C9 32-796 partner): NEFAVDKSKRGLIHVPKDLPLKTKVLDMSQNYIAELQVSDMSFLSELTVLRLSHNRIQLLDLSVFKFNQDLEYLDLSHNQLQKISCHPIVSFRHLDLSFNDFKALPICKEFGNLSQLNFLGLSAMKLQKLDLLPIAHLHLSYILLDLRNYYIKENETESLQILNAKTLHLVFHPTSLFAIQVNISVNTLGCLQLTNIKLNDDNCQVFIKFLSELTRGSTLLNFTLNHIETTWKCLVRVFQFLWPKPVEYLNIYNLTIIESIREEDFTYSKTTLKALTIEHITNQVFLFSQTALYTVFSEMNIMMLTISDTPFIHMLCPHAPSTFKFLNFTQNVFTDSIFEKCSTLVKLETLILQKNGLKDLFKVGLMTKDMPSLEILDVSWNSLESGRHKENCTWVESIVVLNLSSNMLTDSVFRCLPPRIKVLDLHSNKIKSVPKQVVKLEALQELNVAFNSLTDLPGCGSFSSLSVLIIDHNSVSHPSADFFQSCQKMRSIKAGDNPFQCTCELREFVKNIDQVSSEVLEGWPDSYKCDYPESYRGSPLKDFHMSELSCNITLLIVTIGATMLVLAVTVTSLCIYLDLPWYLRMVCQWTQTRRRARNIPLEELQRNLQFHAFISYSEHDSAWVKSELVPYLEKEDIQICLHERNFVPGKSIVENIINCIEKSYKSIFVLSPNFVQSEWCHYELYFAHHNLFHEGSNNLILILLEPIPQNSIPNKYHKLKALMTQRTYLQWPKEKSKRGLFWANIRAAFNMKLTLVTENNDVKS

Regarding `CCCCCCCCCCCCCCCC(=O)OCC(CSC[C@H](N)C(=O)N[C@@H](CO)C(=O)NCCOCCOCCOCCOCCOCCOCCOCCOCCOCCOCCOCCOCCOCCOCCOCCOCCOCCOCCOCCOCCOCCOCCOCCOCCOCCOCCOCCOCCC(=O)NCC(N)=O)OC(=O)CCCCCCCCCCCCCCC` (stereo partly drawn) [INNA-011], the plasma half-life result in [1] and in series [2] was “could not be calculated due to insufficient degradation” each time. The same compound had a half-life in the series “in vitro [3]” of 5.9 h. The half-life at 0.5 μM is above 6.25 h in the series “in vitro [4]”, 4.73 h in the series “in vitro [5]”, 2.88 h in the series “in vitro [6]” and 5.47 h in “in vitro [7]”. The hepatocyte CLint at 0.5 μM in the series “in vitro [4]”, in the series “in vitro [5]”, in “in vitro [6]” and in the series “in vitro [7]” was at most 2 µL/min/1e6 cells in each case.

For the compound Pam3Cys-Ser-PEG3000, the “ability to signal NF-κB compared with INNA-006” value at human TLR2 [8] is listed as “inferior to INNA-006”. Moreover, the solubility in water entry in the series “Solubility in water” is listed as “readily soluble in water”.

Regarding `CCCCCCCCCCCCCCCC(=O)OCC(CSCC(N)C(=O)NC(CO)C(=O)NC(CCCCN)C(=O)NC(CCCCN)C(=O)NC(CCCCN)C(=O)NC(CCCCN)C(=O)O)OC(=O)CCCCCCCCCCCCCCC` (stereo not drawn) [INNA-005, Pam2Cys—Ser—Lys—Lys—Lys—Lys, reference compound] (H-C(X1)SKKKK-OH; configuration not given here), the “TLR2 activation, potency in words” value at human TLR2 [9] (Example 2) is reported as “activated human TLR2”. This compound also had an EC50 on human TLR2 [9] (agonist activity against Human TLR-2 in vitro) of 3.7 pM. Besides, the “progression of influenza virus to the lungs (lung viral titre)” value in series [10] (0.005 nmoles intranasal 1 day prior to 500 pfu Udorn challenge), in series [10] (0.1 nmoles intranasal 1 day prior to 500 pfu Udorn challenge) and in [10] (5 nmoles intranasal 1 day prior to 500 pfu Udorn challenge) was “partial inhibition” each time.
